A word on the Ki: it is the dissociation constant of the complex between target and ligand, obtained from inhibition or displacement.

Structures are written as SMILES.

For one assay, the target named is T1, PI3Kδ (Homo sapiens, UniProt O00329).
T1 construct: Full length p110 subunits of PI3k α, β and δ, N-terminally labeled with polyHis tag; polyHis (N); made in house; host or cells: Sf9 insect cells (baculovirus)
T1 sequence (O00329 whole entry): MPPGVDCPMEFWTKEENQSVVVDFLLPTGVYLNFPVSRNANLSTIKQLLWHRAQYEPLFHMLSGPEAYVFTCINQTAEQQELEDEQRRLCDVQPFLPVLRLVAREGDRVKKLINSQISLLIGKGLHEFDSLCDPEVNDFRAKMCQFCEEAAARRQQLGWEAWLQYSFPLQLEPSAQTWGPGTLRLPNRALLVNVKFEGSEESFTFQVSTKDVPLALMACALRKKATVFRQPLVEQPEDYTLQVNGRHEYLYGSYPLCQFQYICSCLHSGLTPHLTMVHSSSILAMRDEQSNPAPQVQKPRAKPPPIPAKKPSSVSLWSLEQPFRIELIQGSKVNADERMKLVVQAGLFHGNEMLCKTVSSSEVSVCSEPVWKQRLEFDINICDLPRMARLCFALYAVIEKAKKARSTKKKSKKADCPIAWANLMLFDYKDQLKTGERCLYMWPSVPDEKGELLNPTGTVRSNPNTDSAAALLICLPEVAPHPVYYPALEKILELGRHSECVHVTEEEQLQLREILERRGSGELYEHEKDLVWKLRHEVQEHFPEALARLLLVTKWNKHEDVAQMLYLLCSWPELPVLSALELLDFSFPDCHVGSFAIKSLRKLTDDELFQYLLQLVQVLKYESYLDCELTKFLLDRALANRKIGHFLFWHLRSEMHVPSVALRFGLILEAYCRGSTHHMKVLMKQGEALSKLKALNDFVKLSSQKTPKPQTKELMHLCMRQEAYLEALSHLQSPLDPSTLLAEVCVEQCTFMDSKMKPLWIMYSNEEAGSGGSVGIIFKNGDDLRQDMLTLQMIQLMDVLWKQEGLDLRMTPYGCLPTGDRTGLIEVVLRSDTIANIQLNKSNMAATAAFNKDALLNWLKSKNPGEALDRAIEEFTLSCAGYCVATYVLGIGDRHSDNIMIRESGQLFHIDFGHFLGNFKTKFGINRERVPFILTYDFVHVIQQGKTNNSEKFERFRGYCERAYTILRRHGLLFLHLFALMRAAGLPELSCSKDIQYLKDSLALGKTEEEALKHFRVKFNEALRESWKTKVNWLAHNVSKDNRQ
T1 sequence (P27986 whole entry partner): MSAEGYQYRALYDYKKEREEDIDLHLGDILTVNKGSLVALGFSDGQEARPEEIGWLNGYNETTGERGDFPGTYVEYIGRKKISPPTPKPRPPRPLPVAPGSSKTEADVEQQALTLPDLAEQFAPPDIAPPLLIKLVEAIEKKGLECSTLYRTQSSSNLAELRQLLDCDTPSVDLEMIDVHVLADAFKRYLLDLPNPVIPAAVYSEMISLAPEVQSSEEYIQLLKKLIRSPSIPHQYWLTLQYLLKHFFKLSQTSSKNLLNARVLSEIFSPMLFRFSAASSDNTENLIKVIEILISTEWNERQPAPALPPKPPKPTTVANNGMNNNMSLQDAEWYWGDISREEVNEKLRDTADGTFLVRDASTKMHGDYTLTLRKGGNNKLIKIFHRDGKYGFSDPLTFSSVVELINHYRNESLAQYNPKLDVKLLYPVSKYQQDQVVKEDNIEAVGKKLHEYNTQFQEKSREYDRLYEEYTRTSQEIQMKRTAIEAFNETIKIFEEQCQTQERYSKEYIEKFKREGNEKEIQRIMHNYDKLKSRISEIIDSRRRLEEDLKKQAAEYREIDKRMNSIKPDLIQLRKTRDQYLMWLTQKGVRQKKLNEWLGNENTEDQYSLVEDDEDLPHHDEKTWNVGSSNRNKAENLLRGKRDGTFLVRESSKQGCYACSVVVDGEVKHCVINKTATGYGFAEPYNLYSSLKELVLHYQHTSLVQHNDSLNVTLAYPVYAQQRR
Put plainly: PI3Kδ Alphascreen assay.
Conditions: not given
The format is biochemical. As to the method:
Full length p110 subunits of PI3k α, β and δ, N-terminally labeled with polyHis tag, were coexpressed with p85 with Baculo virus expression vectors in sf9 insect cells. P110/p85 heterodimers were purified by sequential Ni-NTA, Q-HP, Superdex-100 chromatography. Purified α, β and δ isozymes were stored at −20° C. in 20 mM Tris, pH 8, 0.2M NaCl, 50% glycerol, 5 mM DTT, 2 mM Na cholate. […] The γ isozyme was purified by sequential Ni-NTA, Superdex-200, Q-HP chromatography. The γ isozyme was stored frozen at −80° C. in NaH2PO4, pH 8, 0.2M NaCl, 1% ethylene glycol, 2 mM β-mercaptoethanol.
A PI3K Alphascreen® assay (PerkinElmer, Waltham, Mass.) was used to measure the activity of a panel of four phosphoinositide 3-kinases: PI3Kα, PI3Kβ, PI3Kγ, and PI3Kδ. Enzyme reaction buffer was prepared using sterile water (Baxter, Deerfield, Ill.) and 50 mM Tris HCl pH 7, 14 mM MgCl2, 2 mM sodium cholate, and 100 mM NaCl. 2 mM DTT was added fresh the day of the experiment. The Alphascreen buffer was made using sterile water and 10 mM Tris HCl pH 7.5, 150 mM NaCl, 0.10% Tween 20, and 30 mM EDTA. 1 mM DTT was added fresh the day of the experiment. Compound source plates used for this assay were 384-well Greiner clear polypropylene plates containing test compounds at 5 mM and diluted 1:2 over 22 concentrations. Columns 23 and 24 contained only DMSO as these wells comprised the positive and negative controls, respectively. Source plates were replicated by transferring 0.5 uL per well into 384-well Optiplates (PerkinElmer, Waltham, Mass.).
Each PI3K isoform was diluted in enzyme reaction buffer to 2× working stocks. […] PI(4,5)P2 (Echelon Biosciences, Salt Lake City, Utah) was diluted to 10 μM and ATP was diluted to 20 μM. This 2× stock was used in the assays for PI3Kα and PI3Kβ. For assay of PI3Kγ and PI3Kδ, PI(4,5)P2 was diluted to 10 μM and ATP was diluted to 8 μM to prepare a similar 2× working stock. Alphascreen reaction solutions were made using beads from the anti-GST Alphascreen kit (PerkinElmer, Waltham, Mass.). Two 4× working stocks of the Alphascreen reagents were made in Alphascreen reaction buffer. In one stock, biotinylated-IP4 (Echelon Biosciences, Salt Lake City, Utah) was diluted to 40 nM and streptavidin-donor beads were diluted to 80 μg/mL. In the second stock, PIP3-binding protein (Echelon Biosciences, Salt Lake City, Utah) was diluted to 40 nM and anti-GST-acceptor beads were diluted to 80 μg/mL.
10 μL/well of the appropriate substrate 2× stock (containing 20 μM ATP for the PI3Kα and β assays and containing 8 μM ATP for the PI3Kγ and δ assays) was then added to Columns 1-24 of all plates. Plates were then incubated at room temperature for 20 minutes. In the dark, 10 μL/well of the donor bead solution was added to columns 1-24 of the plates to quench the enzyme reaction. The plates were incubated at room temperature for 30 minutes. Still in the dark, 10 μL/well of the acceptor bead solution was added to columns 1-24 of the plates. The plates were then incubated in the dark for 1.5 hours. The plates were read on an Envision multimode Plate Reader (PerkinElmer, Waltham, Mass.) using a 680 nm excitation filter and a 520-620 nm emission filter.
For orientation: Alpha assays give light when donor and acceptor beads are brought close together.
For `CC(Nc1ncnc(N)c1C#N)c1nc2ccncc2cc1-c1ccccn1` (racemic) [4-Amino-6-(((1S, 1R)-1-(3-(2-pyridinyl)-1,6-naphthyridin-2-yl)ethyl)amino)-5-pyrimidinecarbonitrile], the affinity, expressed as Ki, was 470 nM.
Regarding `CC(Nc1ncnc(N)c1C#N)c1nc2ncccc2cc1-c1ccccn1` (racemic) [4-Amino-6-(((1S, 1R)-1-(3-(2-pyridinyl)-1,8-naphthyridin-2-yl)ethyl)amino)-5-pyrimidinecarbonitrile], the affinity, expressed as Ki, was 225 nM.
`CC(Nc1ncnc2[nH]cnc12)c1nc2ccc(F)cc2cc1-c1ccccn1` (racemic) [N-(1-(6-Fluoro-3-(pyridin-2-yl)quinolin-2-yl)ethyl)-9H-purin-6-amine]: the Ki was 21.3 nM.
For the compound `C[C@@H](Nc1ncnc(N)c1C#N)c1nc2ccc(F)cc2c(C(=O)N(C)C)c1-c1ccccn1` (stereo in doubt) [2-(1-((6-Amino-5-cyano-4-pyrimidinyl)amino)ethyl)-6-fluoro-N,N-dimethyl-3-(2-pyridinyl)-4-quinolinecarboxamide], affinity was put at a Ki of 7.77 nM.
Compound `CC(Nc1ncnc(N)c1C#N)c1nc2ccc(F)cc2c([S+]([O-])CCO)c1-c1ccccc1` (stereo in doubt) [4-Amino-6-(1-(6-fluoro-4-((R)-2-hydroxyethylsulfinyl)-3-phenylquinolin-2-yl)ethylamino)pyrimidine-5-carbonitrile] showed a Ki of 2.48 nM.
`CC(Nc1ncnc(N)c1C#N)c1nc2ccc(F)cc2c(C(=O)O)c1-c1ccccn1` (centres unmarked) [2-1-((6-Amino-5-cyano-4-pyrimidinyl)amino)ethyl)-6-fluoro-3-(2-pyridinyl)-4-quinolinecarboxylic acid]: the affinity, expressed as Ki, was 119 nM.
Still for that read-out and setting: under `CC(Nc1ncnc(N)c1C#N)c1nc2ccc(F)cc2c(C(=O)O)c1-c1ccccc1` (centres unmarked) [2-(1-(6-Amino-5-cyanopyrimidin-4-ylamino)ethyl)-6-fluoro-3-phenylquinoline-4-carboxylic acid] stands 74.2 nM; under `CC(Nc1ncnc(N)c1C#N)c1nc2ccc(F)cc2c(C(=O)NCC2CC2)c1-c1ccccc1` (centres unmarked) [2-(1-(6-Amino-5-cyanopyrimidin-4-ylamino)ethyl)-N-(cyclopropylmethyl)-6-fluoro-3-phenylquinoline-4-carboxamide], 5.15 nM.
For `CC(Nc1ncnc(N)c1C(N)=O)c1nc2ccc(F)cc2c(C(=O)O)c1-c1ccccc1` (centres unmarked) [2-(1-(6-amino-5-carbamoylpyrimidin-4-ylamino)ethyl)-6-fluoro-3-phenylquinoline-4-carboxylic acid], the affinity, expressed as Ki, was 7.16 nM.
As for `CC(Nc1ncnc(N)c1C#N)c1nc2ccc(F)cc2c(C(=O)NCCN2CCOCC2)c1-c1ccccc1` (centres unmarked) [2-(1-((6-Amino-5-cyano-4-pyrimidinyl)amino)ethyl)-6-fluoro-N-(2-(4-morpholinyl)ethyl)-3-phenyl-4-quinolinecarboxamide], the affinity, expressed as Ki, was 1.02 nM.
Still for that read-out and setting: under `C[C@@H](Nc1ncnc(N)c1C#N)c1nc2ccc(F)cc2c(C#N)c1-c1ccccc1` [2-((1R)-1-((6-Amino-5-cyano-4-pyrimidinyl)amino)ethyl)-6-fluoro-3-phenyl-4-quinolinecarbonitrile] stands 59.1 nM.
As for `C[C@@H](Nc1ncnc(N)c1C#N)c1nc2cccc(C#N)c2cc1-c1ccccn1` [2-((1R)-1-((6-amino-5-cyano-4-pyrimidinyl)amino)ethyl)-3-(2-pyridinyl)-5-quinolinecarbonitrile], the Ki worked out at 2640 nM.
Compound `C[C@H](Nc1ncnc(N)c1C#N)c1nc2cccc(C#N)c2cc1-c1ccccn1` [2-((1S)-1-((6-Amino-5-cyano-4-pyrimidinyl)amino)ethyl)-3-(2-pyridinyl)-5-quinolinecarbonitrile] showed a Ki of 14.1 nM.
In turn, `C[C@@H](c1nc2ccc(F)cc2cc1-c1cncc(F)c1)n1nc(C#N)c2c(N)ncnc21` [4-Amino-1-((S)-1-(6-fluoro-3-(5-fluoropyridin-3-yl)quinolin-2-yl)ethyl)-1H-pyrazolo[3,4-d]pyrimidine-3-carbonitrile] came in with an inhibitory constant (Ki) of 25 nM.
Consider `CC(Nc1ncnc(N)c1C#N)c1nc2ccc(F)cc2c(S(C)(=O)=O)c1-c1cc(F)cc(F)c1` (centres unmarked) [4-Amino-6-(1-(3-(3,5-difluorophenyl)-6-fluoro-4-(methylsulfonyl)quinolin-2-yl)ethylamino)pyrimidine-5-carbonitrile], for which the Ki is 1.12 nM.
Turning to `CC(Nc1ncnc(N)c1C#N)c1nc2ccc(F)cc2c(N2CC(O)C2)c1-c1ccccn1` (centres unmarked) [4-Amino-6-(1-(6-fluoro-4-(3-hydroxyazetidin-1-yl)-3-(pyridin-2-yl)quinolin-2-yl)ethylamino)pyrimidine-5-carbonitrile], affinity was put at a Ki of 1.78 nM.
`COCCNc1c(-c2ccccc2)c(C(C)Nc2ncnc(N)c2C#N)nc2ccc(F)cc12` (centres unmarked) [4-Amino-6-(1-(6-fluoro-4-((2-methoxyethyl)amino)-3-phenyl-2-quinolinyl)-ethyl)amino)-5-pyrimidinecarbonitrile]: the affinity corresponds to a Ki of 1.35 nM.
Consider `CC(Nc1ncnc(N)c1C#N)c1nc2ccc(F)cc2c(CS(C)(=O)=O)c1-c1ccccc1` (centres unmarked) [4-Amino-6-(1-(6-fluoro-4-(methylsulfonylmethyl)-3-phenylquinolin-2-yl)-ethylamino)pyrimidine-5-carbonitrile], for which the affinity corresponds to a Ki of 1.38 nM.
On the same count and under the same terms, under `CC(Nc1ncnc(N)c1C#N)c1nc2ccc(F)cc2c(C(=O)N2CCCC2)c1-c1ccccc1` (centres unmarked) [4-Amino-6-((1-(6-fluoro-3-phenyl-4-(1-pyrrolidinylcarbonyl)-2-quinolinyl)-ethyl)amino)-5-pyrimidinecarbonitrile] stands 7.06 nM; under `CC(Nc1ncnc(N)c1C#N)c1nc2ccc(F)cc2c(NCCS(C)(=O)=O)c1-c1ccccc1` (centres unmarked) [4-Amino-6-((1-(6-fluoro-4-((2-(methylsulfonyl)ethyl)amino)-3-phenyl-2-quinolinyl)ethyl)amino)-5-pyrimidinecarbonitrile], 0.463 nM; under `CC(Nc1ncnc(N)c1C#N)c1nc2ccc(F)cc2c(NCCO)c1-c1ccccc1` (centres unmarked) [4-Amino-6-((1-(6-fluoro-4-((2-hydroxyethyl)amino)-3-phenyl-2-quinolinyl)ethyl)amino)-5-pyrimidinecarbonitrile], 0.396 nM.
In the case of `COC1CN(C(=O)c2c(-c3ccccc3)c(C(C)Nc3ncnc(N)c3C#N)nc3ccc(F)cc23)C1` (centres unmarked) [4-Amino-6-((1-(6-fluoro-4-((3-methoxy-1-azetidinyl)carbonyl)-3-phenyl-2-quinolinyl)ethyl)amino)-5-pyrimidinecarbonitrile], the Ki was 1.75 nM.
Take `CC(Nc1ncnc(N)c1C#N)c1nc2ccc(F)cc2c(C(=O)N2CCN(C)CC2)c1-c1ccccc1` (centres unmarked) [4-Amino-6-((1-(6-fluoro-4-((4-methyl-1-piperazinyl)carbonyl)-3-phenyl-2-quinolinyl)ethyl)amino)-5-pyrimidinecarbonitrile]: the inhibitory constant (Ki) is 1.32 nM.
As to `CC(Nc1ncnc(N)c1C#N)c1nc2ccc(F)cc2c(C(=O)N2CC[C@@H](O)C2)c1-c1ccccc1` (stereo partly drawn) [4-Amino-6-((1-(6-fluoro-4-(((3R)-3-hydroxy-1-pyrrolidinyl)carbonyl)-3-phenyl-2-quinolinyl)ethyl)amino)-5-pyrimidinecarbonitrile], the Ki was found to be 25.6 nM.
For `N#Cc1c(N)ncnc1NCc1nc2cccc(F)c2cc1-c1cc(F)cc(F)c1` [4-Amino-6-((3-(3,5-difluorophenyl)-5-fluoroquinolin-2-yl)methylamino)pyrimidine-5-carbonitrile], the inhibitory constant (Ki) was determined as 246 nM.

Still in this assay, the particulars now being: listed as 4-amino-6-(-1-(6-fluoro-4-(((3R)-3-hydroxy-1-pyrrolidinyl)-carbonyl)-3-phenyl-2)).
On to `CC(Nc1ncnc(N)c1C#N)c1nc2ccc(F)cc2c(C(=O)N2CC[C@@H](O)C2)c1-c1ccccc1` (stereo partly drawn) [4-Amino-6-((1-(6-fluoro-4-(((3R)-3-hydroxy-1-pyrrolidinyl)carbonyl)-3-phenyl-2-quinolinyl)ethyl)amino)-5-pyrimidinecarbonitrile], for which the Ki was 5.07 nM.
